# Source: US7897781B2, “Cold menthol receptor-1 antagonists” (Janssen Pharmaceutica NV, priority 2006, dated 2011)
# Several values for one entry are separate records, joined by “and”; a condition that tells them apart may be missing. Identical values can stand only once.
# Experiments:
# Sprague-Dawley rats = experiment: CFA-induced paw radiant heat hypersensitivity; assay type: in vivo, rat; conditions: 30 mg/kg p.o.
# Description: Intraplantar injection of Complete Freund's Adjuvant (CFA) in rodents results in a long-lasting inflammatory reaction, characterized by a pronounced hypersensitivity to both thermal and mechanical stimuli. This hypersensitivity peaks between 24-72 hours following injection and can last for several weeks. […] This paradigm also may be conducted with a multiple dosing or a prophylactic dosing regime designed to alter the course of hyperalgesia development. This test predicts the analgesic, anti-allodynic and antihyperalgesic effect of numerous effective clinical agents, including NSAIDS such as acetaminophen, aspirin and ibuprofen, and opioids such as morphine.
# Each rat was placed in a test chamber on a warm glass surface and allowed to acclimate for approximately 10 minutes. A radiant thermal stimulus (beam of light) was then focused through the glass onto the plantar surface of each hind paw in turn. The thermal stimulus was automatically shut off by a photoelectric relay when the paw was moved or when the cut-off time was reached (20 seconds for radiant heat at ˜5 Amps). An initial (baseline) response latency to the thermal stimulus was recorded for each animal prior to the injection of CFA. Twenty-four hours following intraplantar CFA injection, the response latency of the animal to the thermal stimulus was then re-evaluated and compared to the animal's baseline response time. […] Immediately following the post-CFA latency assessment, test compound or vehicle (usually Solutol, hydroxypropyl methylcellulose, hydroxypropyl beta-cyclodextrin or PEG-400) was administered i.p. or p.o. to rats. […] The percent reversal (% R) of hypersenstivitiy was calculated according to the following formula: % Reversal=(Treatment Response−CFA Response)/(Baseline Response−CFA Response)×100.
# canine TRPM8 [1] = target: T1, canine TRPM8 (Canis lupus familiaris, UniProt Q1A7N1); experiment: TRPM8 patch clamp assays; assay type: cell-based; conditions: whole-cell patch clamp, HEK293
# T1 construct: expressed in transfected cells
# Description: For patch clamp experiments, HEK293 cells stably transfected with canine TRPM8 were cultured in DMEM supplemented with 10% fetal bovine serum, 100 units/ml penicillin, 100 μg/ml streptomycin and 1 mg/ml G418. Cells were maintained at 37° C. and in 5% CO2.
# The extracellular solution contained (in mM): NaCl, 132; EGTA, 1; KCl, 5.4; MgCl2, 0.8; HEPES, 10; glucose, 10; pH=7.4. Recordings were performed using the conventional whole-cell patch clamp technique, 1-2 days after plating cells onto glass coverslips at densities appropriate for single cell recording. Currents were amplified by a patch clamp amplifier and filtered at 2 kHz (Axopatch 200B, Molecular Devices, Union City, Calif.). Menthol (100 μM) was applied to the cell at 0.5 ml/min via a gravity-fed perfusion system. […]
# In experiments where temperatures were varied, temperature ramps were generated by cooling the perfusate in an in-line cooler (Model SC-20, Warner Instruments, Hamden, Conn.) controlled by a temperature controller (Model CL-100, Warner Instruments). The temperature in the vicinity of the recorded cell was measured with a custom-made miniature thermo-microprobe connected to a monitoring thermometer (Model TH-8, Physitemp, Clifton, N.J.), and sampled using Digidata 1322A and pClamp 9.0 (Molecular Devices), as were the currents concurrently measured in the whole-cell patch clamp mode. […]
# male SD rats = experiment: Chronic constriction injury (CCI)-induced model of neuropathic pain, acetone-induced hypersensitivity; assay type: in vivo, rat; conditions: 30 mg/kg p.o., preRx 1 hr
# Description: Through the mesh floor a series of five applications of acetone (0.05 mL/application) was sprayed onto the bottom of the paw using a multidose syringe device. A positive response took the form of an abrupt withdrawal or lifting of the paw. The percentage of positive responses from the five trials represented the individual's overall response that was then averaged over the entire treatment group. […] An ascending dose response relationship (as in Table 10 below) was generated by addition of successive doses of test compound followed by re-assessment of behavior.
# rats = experiment: Reversal of icilin-induced behaviors in rats; assay type: in vivo, rat; conditions: 30 mg/kg p.o., 1 h post-icilin
# Description: In this paradigm, icilin-induced shaking was counted for 10 minutes followed by administration of a compound of Formula (I). The diminution of shaking behavior is represented as a percent inhibition relative to icilin-induced shakes in the absence of test compound administration, as described by the following formula: % Inhibition=[1−(WDS count following test compound dose/WDS count prior to test compound dose)]×100.
# canine TRPM8 [2] = target: T1, canine TRPM8; experiment: In vitro canine TRPM8 functional assay (Ca2+-sensitive dye, icilin activation; Table 4 TRPM8 Screening); assay type: cell-based; conditions: HEK293 cells expressing canine TRPM8, icilin activation; for % I (0.5 μM): compound at 0.5 μM; for % I (1 μM): compound at 1 μM
# Description: The functional activity of compounds of Formula (I) was determined by measuring changes in intracellular calcium concentration using a Ca^2+-sensitive fluorescent dye. The changes in fluorescent signal were monitored by a fluorescence plate reader, either a FLIPR™ (Molecular Devices) or FDSS (Hamamatsu).
# HEK293 cells stably expressing canine TRPM8 were routinely grown as monolayers in Dulbecco's minimum essential medium supplemented with 10% FBS, 1 mM L-glutamine, 100 units/mL penicillin, 100 ug/mL streptomycin and 400 μg/mL G418. Cells were maintained in 5% CO2 at 37° C. At 24 hrs prior to assay, cells were seeded in clear-base poly-D-lysine coated 384-well plates (BD Biosciences, NJ, USA) at a density of 5,000 cells per well in culture medium and grown overnight in 5% CO2 at 37° C. On assay day, growth media was removed and cells were loaded with Calcium 3 Dye (Molecular Devices) for 35 min at 37° C., under 5% CO2 and then for 25 min at room temperature and atmosphere. Subsequently, cells were tested for agonist-induced increases in intracellular Ca^2+ levels using FLIPR™ or FDSS. Cells were challenged with a compound of Formula (I) (at varying concentrations) and intracellular Ca^2+ was measured for 5 min prior to the addition of icilin to all wells to achieve a final concentration which produces approximately an 80% maximal response.
# Basal FI was subtracted prior to normalizing data to percent of maximal response. Curves were generated using the average of quadruplicate wells for each data point, were analyzed using nonlinear regression of either sigmoidal dose response or sigmoidal dose response (variable slope). Finally, the EC50 and IC50 values were calculated with the best-fit dose curve determined by GraphPad Prism.
# T1 sequence (Q1A7N1 1-1104): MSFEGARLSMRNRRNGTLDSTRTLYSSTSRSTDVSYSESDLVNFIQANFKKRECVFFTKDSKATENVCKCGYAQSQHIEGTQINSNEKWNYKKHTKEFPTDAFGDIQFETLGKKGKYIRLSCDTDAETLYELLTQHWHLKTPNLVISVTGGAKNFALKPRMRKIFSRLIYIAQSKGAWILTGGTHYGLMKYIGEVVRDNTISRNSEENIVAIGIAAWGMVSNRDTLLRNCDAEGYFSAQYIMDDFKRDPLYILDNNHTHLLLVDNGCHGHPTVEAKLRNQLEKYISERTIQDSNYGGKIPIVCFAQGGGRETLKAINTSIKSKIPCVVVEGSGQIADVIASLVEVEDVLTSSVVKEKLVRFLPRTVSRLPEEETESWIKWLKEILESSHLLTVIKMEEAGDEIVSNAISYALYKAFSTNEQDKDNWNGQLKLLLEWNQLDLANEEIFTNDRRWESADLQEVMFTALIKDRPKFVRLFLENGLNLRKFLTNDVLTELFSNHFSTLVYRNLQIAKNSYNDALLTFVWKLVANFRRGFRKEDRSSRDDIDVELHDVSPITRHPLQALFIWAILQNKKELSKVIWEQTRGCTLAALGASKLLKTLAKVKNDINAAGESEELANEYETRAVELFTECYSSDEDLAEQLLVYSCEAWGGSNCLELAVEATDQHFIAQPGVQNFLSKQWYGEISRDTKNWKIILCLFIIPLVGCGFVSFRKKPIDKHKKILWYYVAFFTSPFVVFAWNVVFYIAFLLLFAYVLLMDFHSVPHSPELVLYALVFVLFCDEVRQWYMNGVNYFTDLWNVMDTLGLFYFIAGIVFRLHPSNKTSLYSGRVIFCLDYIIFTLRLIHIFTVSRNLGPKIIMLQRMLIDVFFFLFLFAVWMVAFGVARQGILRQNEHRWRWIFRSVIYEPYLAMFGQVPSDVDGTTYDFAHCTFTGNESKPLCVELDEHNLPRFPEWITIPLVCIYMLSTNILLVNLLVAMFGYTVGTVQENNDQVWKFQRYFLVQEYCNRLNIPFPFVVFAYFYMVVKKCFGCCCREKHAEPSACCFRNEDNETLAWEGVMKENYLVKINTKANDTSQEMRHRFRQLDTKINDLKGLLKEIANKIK
Compound,% I (0.5 μM) (canine TRPM8 [2]),% I (1 μM) (canine TRPM8 [2]),other results
CCOP(=O)(OCC)C(Cc1ccc(F)c(Cl)c1)c1sc2ccccc2c1Br (racemic) [Cpd 244],,,% Reversal (Sprague-Dawley rats; time 2 h): 45%
CC(C)OP(=O)(OC(C)C)C(Cc1cc(C(F)(F)F)ccc1F)c1sc2ccccc2c1Br (centres unmarked) [Cpd 335],,,% Reversal (Sprague-Dawley rats; time 1 h): 0%
CCOP(=O)(OCC)C(Cc1ccc(SC)cc1)c1sc2ccccc2c1Cl (racemic) [Cpd 299],,,% Reversal (Sprague-Dawley rats; time 1 h): 23%
(S)-[1-(3-Bromo-benzo[b]thiophen-2-yl)-2-(4-fluoro-phenyl)ethyl]-phosphonic acid diisopropyl ester [Cpd 239],"103, 103%",,"% Reversal (Sprague-Dawley rats; time 2 h): 36%; IC50 (canine TRPM8 [1]; read-out: Cold (10° C.) IC50, mode of activation cold 10° C.): 5.8 nM; IC50 (canine TRPM8 [1]; read-out: Menthol (100 μM) IC50, mode of activation menthol 100 μM, 22° C.): 3 nM; % of Allodynic Baseline (male SD rats): 29.4%; % Inhibition (rats): 48.4%; IC50 (canine TRPM8 [2]; eight-point dose-response): 37 nM and 27 nM and 31 nM"
CC(C)OP(=O)(OC(C)C)C(Cc1ccc(Cl)c(F)c1)c1sc2ccccc2c1Br (centres unmarked) [Cpd 190],,,% Reversal (Sprague-Dawley rats; time 1 h): 45%
CCOP(=O)(OCC)C(Cc1ccc(F)c(C(F)(F)F)c1)c1sc2ccccc2c1Cl (racemic) [Cpd 298],99%,,% Reversal (Sprague-Dawley rats; time 1 h): 20%
"CCOP(=O)(OCC)C(Cc1ccc(F)c(F)c1)C1=C(C)c2ccccc2S1(=O)=O (centres unmarked) [Cpd 88, [2-(3,4-Difluoro-phenyl)-1-(3-methyl-1,1-dioxo-1H-1λ^6-benzo-[b]thiophen-2-yl)-ethyl]-phosphonic acid diethyl ester]",,89%,
CC(C)OP(=O)(OC(C)C)C(Cc1ccc(F)cc1)c1sc2ccccc2c1Br (centres unmarked) [Cpd 197],,100%,% Reversal (Sprague-Dawley rats; time 2 h): 23%
CCOP(=O)(OCC)C(Cc1cc(C(F)(F)F)cc(C(F)(F)F)c1)c1sc2ccccc2c1Cl (racemic) [Cpd 282],100%,,
CCOP(=O)(OCC)C(Cc1ccc(F)c(F)c1)c1sc2c(C(F)(F)F)cccc2c1C (centres unmarked) [Cpd 116],,64%,
CCOP(=O)(OCC)C(Cc1c(F)c(F)c(OC)c(F)c1F)c1sc2ccccc2c1Br (racemic) [Cpd 160],87%,,
CCOP(=O)(OCC)C(Cc1ccc(F)c(F)c1)c1sc2ccccc2c1-c1cccc(C(N)=O)c1 (racemic) [Cpd 218],79%,,
CC(C)OP(=O)(OC(C)C)C(Cc1ccccc1F)c1sc2cc(Br)ccc2c1Br (centres unmarked) [Cpd 199],,81%,
(S)-[1-(3-Bromo-benzo[b]thiophen-2-yl)-2-(4-trifluoromethoxy-phenyl)-ethyl]-phosphonic acid diisopropyl ester [Cpd 236],,,% Reversal (Sprague-Dawley rats; time 2 h): 25%
CC(C)CCOP(=O)(OCCC(C)C)C(Cc1ccc(F)c(F)c1)c1sc2ccccc2c1Br (racemic) [Cpd 211],97%,,
"CCOP(=O)(OCC)C(Cc1ccc(OC(F)(F)F)cc1)c1sc2ccccc2c1Br (centres unmarked) [Cpd 155, [1-(3-Bromo-benzo[b]thiophen-2-yl)-2-(4-trifluoromethoxyphenyl)-ethyl]-phosphonic acid diethyl ester]",101% and 102%,,
"Cc1c(C(Cc2ccc(F)c(F)c2)P(=O)(OCC(C)(C)C)OCC(C)(C)C)sc2ccccc12 (centres unmarked) [Cpd 53, [2-(3,4-Difluoro-phenyl)-1-(3-methyl-benzo[b]thiophen-2-yl)ethyl]-phosphonic acid bis-(2,2-dimethyl-propyl) ester]",,97%,
(R)-[1-(3-Bromo-benzo[b]thiophen-2-yl)-2-(4-fluoro-phenyl)-ethyl]-phosphonic acid diisopropyl ester [Cpd 240],98% and 77%,,
CC(C)OP(=O)(OC(C)C)C(Cc1ccc(C(F)(F)F)cc1)c1sc2ccccc2c1Br (centres unmarked) [Cpd 336],,,% Reversal (Sprague-Dawley rats; time 1 h): 64%
CCOP(=O)(OCC)C(Cc1cccc(Cl)c1Cl)c1cc2ccccc2s1 (centres unmarked) [Cpd 100],,82%,
CCOP(=O)(OCC)C(Cc1cc2ccccc2s1)c1cc2ccccc2s1 (centres unmarked) [Cpd 90],,89%,
CCOP(=O)(OCC)C(Cc1cc(C(F)(F)F)ccc1Cl)c1sc2ccccc2c1Cl (centres unmarked) [Cpd 274],95%,,
CC(C)OP(=O)(OC(C)C)C(Cc1cc(O)c(Cl)cc1F)c1sc2ccccc2c1Br (racemic) [Cpd 232],99%,,
CCOP(=O)(OCC)C(Cc1ccc(C(F)(F)F)c(F)c1)c1cc2ccccc2s1 (centres unmarked) [Cpd 58],,100%,
CCOP(=O)(OCC)C(Cc1ccc(O)c(F)c1)c1sc2ccccc2c1Br (centres unmarked) [Cpd 226],34%,,
CCOP(=O)(OCC)C(Cc1ccc(F)cc1Cl)c1sc2ccccc2c1C (centres unmarked) [Cpd 27],,99%,
CCOP(=O)(OCC)C(Cc1cccc(C(F)(F)F)c1)c1sc2ccccc2c1Br (centres unmarked) [Cpd 141],100%,,
CCOP(=O)(OCC)C(Cc1ccccc1Cl)c1sc2ccccc2c1C (centres unmarked) [Cpd 48],,100%,
CCOP(=O)(OCC)C(Cc1cccc(C(F)(F)F)c1F)c1sc2ccccc2c1C (centres unmarked) [Cpd 37],,100%,
CCOP(=O)(OCC)C(Cc1ccc(F)c(F)c1)c1cc2cccnc2s1 (centres unmarked) [Cpd 131],,28%,
